From US8901307B2, “Chemical compounds 251” (AstraZeneca AB, priority 2008, dated 2014)

Columns and labels:
human His-PIM2 [23-299] = biological target: T1, human His-PIM2 [23-299] (Homo sapiens, UniProt Q9P1W9); assay: PIM2 in-vitro mobility shift assay (Caliper LC3000, FL-Ahx-Bad phosphorylation); assay type: biochemical; conditions: 1.5 h; percent inhibition at 0.3 uM compound; read-out: PIM2 % I at 0.3 uM
T1 construct: purified human His-PIM2 [23-299] enzyme; His (N); host or cells: E. coli

human His-PIM1 [2-313] = biological target: T2, human His-PIM1 [2-313] (Homo sapiens, UniProt P11309); assay: PIM1 in-vitro mobility shift assay (Caliper LC3000, FL-Ahx-Bad phosphorylation); assay type: biochemical; conditions: 1.5 h; percent inhibition at 0.3 uM compound; read-out: PIM1 % I at 0.3 uM
T2 construct: purified human His-PIM1 [2-313] enzyme; His (N); purchased University of Dundee, Scotland; host or cells: baculovirus system
Outline: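 Compound preincubated 20 min at 25 °C with 2.4 nM PIM1, 3.6 µM FL-Ahx-Bad peptide and 240 µM ATP (1.2× mix concentrations). Reaction started with 24 mM MgCl2 mix, run 90 min at 25 °C, EDTA-stopped. Phospho/unphospho peptide separated by microfluidic mobility shift; percent inhibition from ratiometric turnover.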

T1 sequence (Q9P1W9 23-299): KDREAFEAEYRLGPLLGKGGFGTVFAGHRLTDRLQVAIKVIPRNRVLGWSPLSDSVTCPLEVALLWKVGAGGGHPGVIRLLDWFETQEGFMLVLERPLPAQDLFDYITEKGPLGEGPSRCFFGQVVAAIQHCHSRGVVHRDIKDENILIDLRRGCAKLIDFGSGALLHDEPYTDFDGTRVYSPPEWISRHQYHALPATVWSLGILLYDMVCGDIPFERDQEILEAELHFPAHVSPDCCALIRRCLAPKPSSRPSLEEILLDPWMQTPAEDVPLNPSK
T2 sequence (P11309 2-313): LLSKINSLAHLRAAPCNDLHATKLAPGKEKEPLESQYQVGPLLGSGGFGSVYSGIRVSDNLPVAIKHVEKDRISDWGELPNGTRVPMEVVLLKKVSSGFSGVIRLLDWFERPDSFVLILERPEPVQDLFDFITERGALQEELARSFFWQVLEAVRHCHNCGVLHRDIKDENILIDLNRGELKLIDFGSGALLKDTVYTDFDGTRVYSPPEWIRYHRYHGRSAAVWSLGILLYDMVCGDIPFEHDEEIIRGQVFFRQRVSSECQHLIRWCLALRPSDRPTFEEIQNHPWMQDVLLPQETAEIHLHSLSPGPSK

`Cn1ccnc1C(=O)N[C@H]1CCN(c2c(Cl)cccc2/C=C2\SC(=O)NC2=O)C1` [Example 135, (S,Z)-N-(1-(2-chloro-6-((2,4-dioxothiazolidin-5-ylidene)methyl)phenyl)pyrrolidin-3-yl)-1-methyl-1H-imidazole-2-carboxamide] gave an inhibition at 0.3 µM (human His-PIM2 [23-299]) of 10.8% and an inhibition at 0.3 µM (human His-PIM1 [2-313]) of 42.5%.

`COCC(=O)N[C@H]1CCN(c2c(Cl)cccc2/C=C2\SC(=O)NC2=O)C1` [Example 136] gave an inhibition at 0.3 µM (human His-PIM2 [23-299]) of 44.6% and an inhibition at 0.3 µM (human His-PIM1 [2-313]) of 82.8%.

In the case of `Cn1ccc(C(=O)N[C@H]2CCN(c3c(Cl)cccc3/C=C3\SC(=O)NC3=O)C2)n1` [Example 137], the inhibition at 0.3 µM (human His-PIM2 [23-299]) is reported as 18.6% and the inhibition at 0.3 µM (human His-PIM1 [2-313]) is reported as 55.1%.

Molecule `NC(=O)NCC(=O)N[C@H]1CCN(c2c(Cl)cccc2/C=C2\SC(=O)NC2=O)C1` [Example 138] has an inhibition at 0.3 µM (human His-PIM2 [23-299]) of 63.2% and an inhibition at 0.3 µM (human His-PIM1 [2-313]) of 87.9%.

With `O=C(Cc1cccnc1)N[C@H]1CCN(c2c(Cl)cccc2/C=C2\SC(=O)NC2=O)C1` [Example 139] the inhibition at 0.3 µM (human His-PIM2 [23-299]) was 15.1% and the inhibition at 0.3 µM (human His-PIM1 [2-313]) was 58.1%.

Work on `O=C(Cc1ccncc1)N[C@H]1CCN(c2c(Cl)cccc2/C=C2\SC(=O)NC2=O)C1` [Example 140] yielded an inhibition at 0.3 µM (human His-PIM2 [23-299]) of 52% and an inhibition at 0.3 µM (human His-PIM1 [2-313]) of 73.3%.

Molecule `Cn1cc(C(=O)N[C@H]2CCN(c3c(Cl)cccc3/C=C3\SC(=O)NC3=O)C2)cn1` [Example 141] has an inhibition at 0.3 µM (human His-PIM2 [23-299]) of under 5% and an inhibition at 0.3 µM (human His-PIM1 [2-313]) of 34.9%.

`O=C(CN1CC[S+]([O-])CC1)N[C@H]1CCN(c2c(Cl)cccc2/C=C2\SC(=O)NC2=O)C1` [Example 142] gave an inhibition at 0.3 µM (human His-PIM2 [23-299]) of 75.2% and an inhibition at 0.3 µM (human His-PIM1 [2-313]) of 86.1%.

`NS(=O)(=O)CCCC(=O)N[C@H]1CCN(c2c(Cl)cccc2/C=C2\SC(=O)NC2=O)C1` [Example 143] showed an inhibition at 0.3 µM (human His-PIM2 [23-299]) of 49.8% and an inhibition at 0.3 µM (human His-PIM1 [2-313]) of 85.9%.

With `CN(C)C(=O)CCC(=O)N[C@H]1CCN(c2c(Cl)cccc2/C=C2\SC(=O)NC2=O)C1` [Example 144] the inhibition at 0.3 µM (human His-PIM2 [23-299]) was 21.2% and the inhibition at 0.3 µM (human His-PIM1 [2-313]) was 63.2%.

For `CN(C)CC(=O)N[C@H]1CCN(c2c(Cl)cccc2/C=C2\SC(=O)NC2=O)C1` [Example 145], the inhibition at 0.3 µM (human His-PIM2 [23-299]) was 80.1% and the inhibition at 0.3 µM (human His-PIM1 [2-313]) was over 95%.

Work on `N#CCC(=O)N[C@H]1CCN(c2c(Cl)cccc2/C=C2\SC(=O)NC2=O)C1` [Example 146] yielded an inhibition at 0.3 µM (human His-PIM2 [23-299]) of 48.5% and an inhibition at 0.3 µM (human His-PIM1 [2-313]) of 88.9%.

`CC(=O)NCC(=O)N[C@H]1CCN(c2c(Cl)cccc2/C=C2\SC(=O)NC2=O)C1` [Example 147] was tested, and the inhibition at 0.3 µM (human His-PIM2 [23-299]) was 36.4% and the inhibition at 0.3 µM (human His-PIM1 [2-313]) was 74.3%.

Molecule `CCCN(CCC)[C@@H]1CCCN(c2c(Cl)cccc2/C=C2\SC(=O)NC2=O)C1` [Example 148, (R,Z)-5-(3-chloro-2-(3-(dipropylamino)piperidin-1-yl)benzylidene)thiazolidine-2,4-dione] has an inhibition at 0.3 µM (human His-PIM2 [23-299]) of 60.8% and an inhibition at 0.3 µM (human His-PIM1 [2-313]) of 91.5%.

`O=C1NC(=O)/C(=C/c2cccc(Cl)c2N2CCC[C@@H](NCCC(F)(F)F)C2)S1` [Example 149] showed an inhibition at 0.3 µM (human His-PIM2 [23-299]) of 75.4% and an inhibition at 0.3 µM (human His-PIM1 [2-313]) of over 95%.

`COc1ccc(OCCCNC(C)C)c(C=C2SC(=O)NC2=O)c1` [Example 150] gave an inhibition at 0.3 µM (human His-PIM2 [23-299]) of 31.7% and an inhibition at 0.3 µM (human His-PIM1 [2-313]) of 79.8%.

`CN(C)C1CCN(c2ccc(N)cc2/C=C2\SC(=O)NC2=O)C1` (stereo not drawn) [Example 151, (Z)-5-(5-amino-2-(3-(dimethylamino)pyrrolidin-1-yl)benzylidene)thiazolidine-2,4-dione] was tested, and the inhibition at 0.3 µM (human His-PIM2 [23-299]) was 13.5% and the inhibition at 0.3 µM (human His-PIM1 [2-313]) was 31.5%.

Work on `COc1cc(N)c(/C=C2\SC(=O)NC2=O)cc1OC` [Example 152] yielded an inhibition at 0.3 µM (human His-PIM2 [23-299]) of 16.7% and an inhibition at 0.3 µM (human His-PIM1 [2-313]) of 10.8%.
